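In this assay, cells in 96-well plates receive the compound at five concentrations for 48 hours. Endpoints are linearly interpolated between the surrounding concentrations. GI50 is the concentration that inhibits growth by half.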 The source made the active and inactive calls. No stated cut-off is given here; in the data, active = GI50 up to about 1.1 µM and inactive = higher.
Assays:
Assay in all cases: NCI tumour cell line growth inhibition, 48 h
[1] = test system: K562
[2] = test system: CAKI-1
[3] = test system: U-251
[4] = test system: SF-268
[5] = test system: HT-29
[6] = test system: SK-MEL-5
[7] = test system: SK-MEL-2
[8] = test system: KM12
[9] = test system: RXF 393
[10] = test system: 786-0
[11] = test system: T47D
[12] = test system: A498
[13] = test system: SN12C
[14] = test system: SK-MEL-28
[15] = test system: SR
[16] = test system: NCI-H522
[17] = test system: RPMI-8226
[18] = test system: SF-539
[19] = test system: MOLT-4
[20] = test system: A549
[21] = test system: NCI-H226
[22] = test system: LOX IMVI
[23] = test system: MCF7
[24] = test system: SNB-75
[25] = test system: ACHN
[26] = test system: NCI-H460
[27] = test system: PC-3
[28] = test system: CCRF-CEM
[29] = test system: OVCAR-8
[30] = test system: M14
[31] = test system: IGROV-1
[32] = test system: TK-10
[33] = test system: SNB-19
[34] = test system: NCI-H23
[35] = test system: MDA-MB-231
[36] = test system: OVCAR-4
[37] = test system: SK-OV-3
[38] = test system: SF-295
[39] = test system: HOP-92
[40] = test system: UACC-62
[41] = test system: HCT-116
[42] = test system: OVCAR-5
[43] = test system: BT-549
[44] = test system: UO-31
[45] = test system: COLO 205
[46] = test system: MDA-MB-435
[47] = test system: HCT-15
[48] = test system: EKVX
[49] = test system: SW-620
[50] = test system: MDA-N
[51] = test system: HCC 2998
[52] = test system: UACC-257
[53] = test system: OVCAR-3
[54] = test system: HOP-62
[55] = test system: NCI/ADR-RES
[56] = test system: Malme-3M
[57] = test system: DU-145

## CC(=O)Nc1ccc(/C=C/C(=O)N2CC(CCl)c3c2cc(N)c2ccccc32)cc1 (configuration not stated)
[1]
  GI50: 21.1 nM (active)
[2]
  GI50: < 5 nM (active)
[3]
  GI50: < 5 nM (active)
[4]
  GI50: < 5 nM (active)
[5]
  GI50: < 5 nM (active)
[6]
  GI50: < 5 nM (active)
[7]
  GI50: < 5 nM (active)
[8]
  GI50: 6.4 nM (active)
[9]
  GI50: < 5 nM (active)
[10]
  GI50: < 5 nM (active)
[11]
  GI50: 10 nM (active)
[12]
  GI50: < 5 nM (active)
[13]
  GI50: < 5 nM (active)
[14]
  GI50: 6.41 nM (active)
[15]
  GI50: < 5 nM (active)
[16]
  GI50: < 5 nM (active)
[17]
  GI50: 14.9 nM (active)
[18]
  GI50: < 5 nM (active)
[19]
  GI50: < 5 nM (active)
[20]
  GI50: < 5 nM (active)
[21]
  GI50: < 5 nM (active)
[22]
  GI50: < 5 nM (active)
[23]
  GI50: < 5 nM (active)
[24]
  GI50: 10 nM (active)
[25]
  GI50: < 5 nM (active)
[26]
  GI50: < 5 nM (active)
[27]
  GI50: < 5 nM (active)
[28]
  GI50: < 5 nM (active)
[29]
  GI50: < 5 nM (active)
[30]
  GI50: < 5 nM (active)
[31]
  GI50: < 5 nM (active)
[32]
  GI50: < 5 nM (active)
[33]
  GI50: < 5 nM (active)
[34]
  GI50: < 5 nM (active)
[35]
  GI50: < 5 nM (active)
[36]
  GI50: 22.6 nM (active)
[37]
  GI50: 9.1 nM (active)
[38]
  GI50: < 5 nM (active)
[39]
  GI50: < 5 nM (active)
[40]
  GI50: < 5 nM (active)
[41]
  GI50: < 5 nM (active)
[42]
  GI50: < 5 nM (active)
[43]
  GI50: 6.24 nM (active)
[44]
  GI50: < 5 nM (active)
[45]
  GI50: 8.93 nM (active)
[46]
  GI50: 7.67 nM (active)
[47]
  GI50: < 5 nM
[48]
  GI50: 10 nM (active)
[49]
  GI50: < 5 nM (active)
[50]
  GI50: 5.53 nM (active)
[51]
  GI50: < 5 nM (active)
[52]
  GI50: 15.6 nM (active)
[53]
  GI50: 12.7 nM (active)
[54]
  GI50: < 5 nM (active)
[55]
  GI50: < 5 nM (active)
[56]
  GI50: < 5 nM (active)
[57]
  GI50: < 5 nM (active)

## CCOP(=O)(OCC)/C(C#N)=C/c1cccn1Cc1ccccc1
[1]
  GI50: 28200 nM (inactive)
[2]
  GI50: 42200 nM (inactive)
[3]
  GI50: 22600 nM (inactive)
[4]
  GI50: 43500 nM (inactive)
[5]
  GI50: 32700 nM (inactive)
[6]
  GI50: 16100 nM (inactive)
[7]
  GI50: 21300 nM (inactive)
[8]
  GI50: 26900 nM (inactive)
[9]
  GI50: 30800 nM (inactive)
[10]
  GI50: 26100 nM (inactive)
[11]
  GI50: 16900 nM (inactive)
[12]
  GI50: 34300 nM (inactive)
[13]
  GI50: 31100 nM (inactive)
[14]
  GI50: 19700 nM (inactive)
[15]
  GI50: 31300 nM (inactive)
[16]
  GI50: 23800 nM (inactive)
[18]
  GI50: 18500 nM (inactive)
[19]
  GI50: 17200 nM (inactive)
[20]
  GI50: 34800 nM (inactive)
[21]
  GI50: 20700 nM (inactive)
[22]
  GI50: 20800 nM (inactive)
[23]
  GI50: 29500 nM (inactive)
[24]
  GI50: 39900 nM (inactive)
[25]
  GI50: 34400 nM (inactive)
[26]
  GI50: 31900 nM (inactive)
[27]
  GI50: 31900 nM (inactive)
[28]
  GI50: 27200 nM (inactive)
[29]
  GI50: 33600 nM (inactive)
[30]
  GI50: 48100 nM (inactive)
[31]
  GI50: 26100 nM (inactive)
[32]
  GI50: 40900 nM (inactive)
[33]
  GI50: 44400 nM (inactive)
[34]
  GI50: 31300 nM (inactive)
[35]
  GI50: 22400 nM (inactive)
[37]
  GI50: 53000 nM (inactive)
[38]
  GI50: 29600 nM (inactive)
[39]
  GI50: 13500 nM (inactive)
[40]
  GI50: 19900 nM (inactive)
[41]
  GI50: 17000 nM (inactive)
[42]
  GI50: 83200 nM (inactive)
[43]
  GI50: 32300 nM (inactive)
[44]
  GI50: 24400 nM (inactive)
[45]
  GI50: 21500 nM (inactive)
[46]
  GI50: 19400 nM (inactive)
[47]
  GI50: 29000 nM
[48]
  GI50: 38000 nM (inactive)
[49]
  GI50: 25800 nM (inactive)
[50]
  GI50: 29900 nM (inactive)
[51]
  GI50: 35300 nM (inactive)
[52]
  GI50: 39500 nM (inactive)
[53]
  GI50: 40600 nM (inactive)
[54]
  GI50: 40000 nM (inactive)
[55]
  GI50: 26200 nM (inactive)
[56]
  GI50: 32300 nM (inactive)
[57]
  GI50: 43200 nM (inactive)
